Results: patent publication US20230348437A1, “COMPOUNDS, COMPOSITIONS AND METHODS” (Denali Therapeutics Inc., priority 2020, published 2023)
Read-outs that look alike come from different tables or passages of the source.

How the values were obtained:
[1] = test system: NLRP3 (IL-1β release from THP-1 cells); assay: IL-1β detection in IFN-γ differentiated THP-1 cells, LPS induction and ATP, 96 well format; assay type: cell-based; settings: Homo sapiens, IFN-γ 25 ng/mL, LPS 50 ng/mL, ATP 5 mM, IL-1β ELISA, read-out: Activity (IC50 class)
Method: (§1) Compounds as provided herein were tested in the following assay. Cell culture medium employed contained RPMI 1640 medium (89%), FBS (10%), Pen/Strep (1%), and 2-mercaptoethanol (0.05 mM). Freezing medium was made up of 90% FBS and 10% DMSO. THP-1 cells were removed from the liquid nitrogen and placed into a 37° C. water bath to thaw, until signs of ice dissipated. The cells were then added to 9 mL of warm cell culture medium and centrifuged for 5 minutes at 1000 rpm. The supernatant was discarded, and the cells were resuspended in new cell culture medium. The THP-1 cells were then split and cultured in the cell culture medium, being passaged every 2-3 days (5×10^5 cells/mL passaged every two days, 3×10^5 cells/mL passaged every three days). Cell density was maintained between 5×10^5-1.5×10^6 viable cells/mL.
To freeze, cells were resuspended with fresh freezing medium, adjusting the cell density to between 3×10^6-10×10^6 cells/mL. The cell suspension was partitioned into 1 mL aliquots per vial, and the vials were transferred to a -80° C. freezer. After one day at -80° C., the cell vials were transferred to liquid nitrogen freezer for storage.
PBST solution was prepared by mixing 3600 mL of water, 400 mL of 10X PBS, and 4 mL of Tween 20. IFN-γ solution was reconstituted with 100 µL of water to obtain a 1 mg/mL solution, which was then diluted with 0.1 % BSA to provide a 100 ng/mL solution. The IFN-γ solution was stored at -20° C. LPS was reconstituted with 1 mL of PBS solution to obtain a 1 mg/mL stock solution, which was further diluted to 50 ng/mL with serum-free medium. The LPS solution was stored at 4° C.
The 96 well plates were then incubated at 37° C. under a humidified atmosphere of 5% CO2 for 24 h.
LPS induction: When IFN-γ treatment was completed, the supernatants were discarded by hand. 100 µL of a 1X solution of LPS in serum-free medium (50 ng/mL) was added. The plates were incubated in a 37° C. incubator under a humidified atmosphere of 5% CO2 for 4 h. Sample compounds were dissolved in DMSO and the compound solutions were dispensed to the wells using a Tecan D300e digital dispenser. The final concentration of DMSO for each well was 0.5%. The plates were then incubated at 37° C. under a humidified atmosphere of 5% CO2 for 1 h. 20 µL of a 6X solution of ATP was added (final concentration per well: 5 mM), and the plates incubated at 37° C. under a humidified atmosphere of 5% CO2 for 1 h. The supernatants were then collected and analyzed using an IL-Iβ detection kit. If needed, the test samples could be stored at -20° C. until analyzed.
Compound dilution: Compound solution source plates (20 µL of a 10 mM solution of each compound was delivered to the specified wells and stored in a nitrogen cabinet until tested.
Coat Elisa plate: The captured antibody (mAb Mt175) was diluted in PBS to a concentration of 2 µg/mL, and then used to coat the ELISA plate (SIGMA-P6366) overnight at 4° C.
The antibody coat was discarded and the plate was washed 4 times with PBST. The plate was blocked by adding 25 µL/well of blocking buffer (LiCor-927-40000) with 0.1% Tween 20, then incubated for 1 h at room temperature. The blocking buffer was then discarded and the plate was washed 4 times with PBST.
One hour before test sample addition, the sample plates were allowed to thaw at room temperature, centrifuged at 1000 rpm for 1 minute, and shaken for 30 seconds. 25 µL/well of the test samples were transferred to the ELISA plate, and the plate was incubated for 2 h at room temperature.
The test samples were discarded and the ELISA plate was washed 4 times with PBST. 15 µL/well of mAb7P10-biotin at 0.5 µg/mL (1:1000) in blocking buffer was then added to the ELISA plate and it was incubated for 1 h at room temperature.
The antibody was discarded and the ELISA plate was washed 4 times with PBST. Then 15 µL/well of streptavidin-HRP diluted 1:1000 in blocking buffer was added to the ELISA plate and it was allowed to incubate for 1 h at room temperature.

[2] = test system: NLRP3 (IL-1β secretion from THP-1 cells); assay: IL-1β secretion assay in 384-well plates, PMA differentiated THP-1 cells, LPS and nigericin stimulation; assay type: cell-based; settings: Homo sapiens
Method: as §1, with “Cell culture medium employed contained RPMI 1640 medium (89%), FBS (10%), Pen/Strep (1%), and 2-mercaptoethanol (0.05 mM).” left out
PMA was dissolved in DMSO to make a stock solution at 5 mg/mL and stored in 10 µl aliquots at -20° C. for single use. PMA is added to normal growth medium. LPS was diluted with 1 mL of water solution to provide a 1 mg/mL stock solution and stored in 15 µl aliquots at -20° C. for single use. Nigericin is diluted in ice cold 100% ethanol to 5 mg/mL (6.7 mM) and stored in 75 µL aliquots at -20° C. for single use. […] The two control conditions used to qualify and normalize test compound dose-response curves were as follows: High Control = 25 ng/mL LPS, 5 µM Nigericin, 0.5% DMSO, Low Control = 25 ng/mL, LPS, 0.5% DMSO.
THP-1 cells were diluted to provide a suspension at a concentration of 1.0×10^6 cells/mL with the total volume of suspension required to enable the desired number of assay plates. The growth media was supplemented with PMA (5 ng/mL final concentration) and the cells were incubated at 37° C. under a humidified atmosphere of 5% CO2 for 40 h.
All media was carefully aspirated from each culture flask. The cells were washed carefully with 1x DPBS. The cells were then briefly digested with trypsin LE for 5 minutes at 23° C. and immediately resuspended in cell growth media. After resuspension, the cells were centrifuged at 1000 rpm for 3 minutes and the supernatant was discarded. The cells were resuspended in DPBS and once again centrifuged at 1000 rpm for 5 minutes. The supernatant was discarded and the cell pellet was resuspended in serum-free media supplemented with LPS (25 ng/mL final concentration) to enable the distribution of 30 K THP-1 cells within 45 µL of media into each well of 384-well PDL-coated plates. The 384-well plates were then incubated at 37° C. under a humidified atmosphere of 5% CO2 for 2 h. Following this period, test compounds were dispensed by Tecan across the desired concentration range with all wells normalized to a final 0.5 % DMSO concentration. The plates were then incubated at 37° C. under a humidified atmosphere of 5% CO2 for 1 h. Following this period, 5 µL of the […] nigericin stock solution was added to each of the appropriate wells and plates were centrifuged at 1000 rpm for 30 seconds. The plates were the immediately reintroduced to the incubator at 37° C. under a humidified atmosphere of 5% CO2 for 2 h. After this time, 35 µL/well of supernatant was collected and transferred into v-bottom plate and centrifuged at 1000 rpm for 1 minute. These supernatant aliquots were analyzed using an IL-Iβ detection kit as described below. If needed, the test samples could be snap frozen and stored at -80° C. until analyzed.
To prepare each ELISA plate, capture antibody (mAb Mt175) was diluted with PBS to a final concentration of 2 µg/mL and then 20 µL of this solution was added to each well of the ELISA plate. Each plate was allowed to incubate overnight at 4° C. The next day, the capture antibody solution was removed and discarded. […] Each ELISA plate was then allowed to incubate for 1 hour at 23° C. After this time, the blocking buffer was removed and discarded. Each ELISA plate was washed 4 times with PBST. During this time, the v-bottomed plates containing the supernatant aliquots from the assay run were centrifuged at 300 g for 5 minutes before transferring 15 µL/well of the supernatant sample to each ELISA plate. […]

[3] = THP-1 cells, PMA 5 ng/mL, LPS 25 ng/mL, nigericin, IL-1β ELISA, 384-well, read-out: Activity

Structure (SMILES) | IC50 [1] | IC50 [2, 3] | IC50 ([2]; THP-1, read-out: Activity (µM))
CC(C)c1nn(CC(=O)N[C@H]2C[C@@](C)(O)C2)c(=O)cc1-c1ccccc1 [Example 1, N-(cis-3-hydroxy-3-methylcyclobutyl)-2-(3-isopropyl-6-oxo-4-phenylpyridazin-1(6H)-yl)acetamide] | < 10 µM | 3.32 µM | 
CC(C)c1nn(CC(=O)N[C@H]2C[C@@](C)(O)C2)c(=O)cc1-c1cccc(Cl)c1 [Example 2, 2-(4-(3-chlorophenyl)-3-isopropyl-6-oxopyridazin-1(6H)-yl)-N-(cis-3-hydroxy-3-methylcyclobutyl)acetamide] | < 10 µM | 1.49 µM | 
CCc1nn(CC(=O)N[C@H]2C[C@@](C)(O)C2)c(=O)cc1-c1ccccc1 [Example 3, 2-(3-Ethyl-6-oxo-4-phenylpyridazin-1(6H)-yl)-N-(cis-3-hydroxy-3-methylcyclobutyl)acetamide] | < 10 µM | 6.77 µM | 
CC(C)c1nn(CC(=O)N[C@H]2C[C@@](C)(O)C2)c(=O)cc1-c1ccccc1Cl [Example 4, 2-(4-(2-Chlorophenyl)-3-isopropyl-6-oxopyridazin-1(6H)-yl)-N-(cis-3-hydroxy-3-methylcyclobutyl)acetamide] | < 10 µM | 5.91 µM | 
CC(C)c1nn(CC(=O)Nc2ncncc2F)c(=O)cc1-c1cccc(Cl)c1 [Example 6, 2-(4-(3-chlorophenyl)-3-isopropyl-6-oxopyridazin-1(6H)-yl)-N-(5-fluoropyrimidin-4-yl)acetamide] | < 10 µM | 0.535 µM | 
COc1cccc(-c2cc(=O)n(CC(=O)N[C@H]3C[C@@](C)(O)C3)nc2C(C)C)c1 [Example 7] | < 10 µM | 7.06 µM | 
CC(C)c1nn(CC(=O)N[C@H]2C[C@@](C)(O)C2)c(=O)cc1-c1cccc(C#N)c1 [Example 8, 2-(4-(3-cyanophenyl)-3-isopropyl-6-oxopyridazin-1(6H)-yl)-N-(cis-3-hydroxy-3-methylcyclobutyl)acetamide] | 10 to 15 µM | 24.5 µM | 
Cc1cccc(-c2cc(=O)n(CC(=O)N[C@H]3C[C@@](C)(O)C3)nc2C(C)C)c1 [Example 9, N-(cis-3-hydroxy-3-methylcyclobutyl)-2-(3-isopropyl-6-oxo-4-(m-tolyl)pyridazin-1(6H)-yl)acetamide] | < 10 µM | 2.27 µM | 
CC(C)c1nn(CC(=O)N[C@H]2C[C@@](C)(O)C2)c(=O)cc1-c1ccc(F)cc1 [Example 10, 2-(4-(4-fluorophenyl)-3-isopropyl-6-oxopyridazin-1(6H)-yl)-N-(cis-3-hydroxy-3-methylcyclobutyl)acetamide] | 10 to 15 µM | 50 µM | 
CC(C)c1nn(C2(C(=O)Nc3ncccn3)CC2)c(=O)cc1-c1cc(F)cc(F)c1 [Example 51, 1-[4-(3,5-difluorophenyl)-3-isopropyl-6-oxo-pyridazin-1-yl]-N-pyrimidin-2-yl-cyclopropanecarboxamide] |  | 1.14 µM | 
CCc1nn(CC(=O)Nc2ncncc2F)c(=O)c(C)c1-c1cccc(F)c1 [Example 52, 2-[3-ethyl-4-(3-fluorophenyl)-5-methyl-6-oxopyridazin-1-yl]-N-(5-fluoropyrimidin-4-yl)acetamide] |  | 4.36 µM | 
O=C(Cn1nc(C(F)F)c(-c2cc(F)cc(F)c2)cc1=O)Nc1ncc(F)cn1 [Example 53, 2-[3-(difluoromethyl)-4-(3,5-difluorophenyl)-6-oxopyridazin-1-yl]-N-(5-fluoropyrimidin-2-yl)acetamide] |  | 2.77 µM | 
CC(C)c1nn(CC(=O)Nc2ncc(F)cn2)c(=O)cc1-c1cncc(F)c1 [Example 54, 2-[4-(5-fluoropyridin-3-yl)-6-oxo-3-propan-2-ylpyridazin-1-yl]-N-(5-fluoropyrimidin-2-yl)acetamide] |  | 6.98 µM | 
CC(CF)c1nn(CC(=O)Nc2ncc(F)cn2)c(=O)cc1-c1cc(F)cc(F)c1 (stereo not shown) [Example 55, 2-[4-(3,5-difluorophenyl)-3-(1-fluoropropan-2-yl)-6-oxopyridazin-1-yl]-N-(5-fluoropyrimidin-2-yl)acetamide] |  | 1.06 µM | 
O=C(Cn1nc(C2CCC2)c(-c2cc(F)cc(F)c2)cc1=O)Nc1ncc(F)cn1 [Example 56, 2-[3-cyclobutyl-4-(3,5-difluorophenyl)-6-oxopyridazin-1-yl]-N-(5-fluoropyrimidin-2-yl)acetamide] |  | 0.713 µM | 
COc1nn(CC(=O)Nc2ncc(F)cn2)c(=O)cc1-c1cc(F)cc(F)c1 [Example 57, 2-[4-(3,5-difluorophenyl)-3-methoxy-6-oxopyridazin-1-yl]-N-(5-fluoropyrimidin-2-yl)acetamide] |  |  | 1.96 µM
